Measurements published in patent US7648972B2, “2-methylene-1α-hydroxy-19,21-dinorvitamin D3 analogs and uses thereof” (Wisconsin Alumni Research Foundation, priority 2006, dated 2010).
Entries after “also recorded” stand apart in the source; their conditions may differ.

Assays:
[1] = target: T1, full-length recombinant rat vitamin D receptor (Rattus norvegicus, UniProt P13053); assay: Vitamin D receptor binding (competition with [3H]-1,25-(OH)2-D3)
T1 construct: Full-length recombinant rat receptor was expressed in E. coli BL21 (DE3) Codon Plus RIL cells; histidine tag (C); made in house; host or cells: E. coli BL21 (DE3) Codon Plus RIL
T1 sequence (P13053 1-423): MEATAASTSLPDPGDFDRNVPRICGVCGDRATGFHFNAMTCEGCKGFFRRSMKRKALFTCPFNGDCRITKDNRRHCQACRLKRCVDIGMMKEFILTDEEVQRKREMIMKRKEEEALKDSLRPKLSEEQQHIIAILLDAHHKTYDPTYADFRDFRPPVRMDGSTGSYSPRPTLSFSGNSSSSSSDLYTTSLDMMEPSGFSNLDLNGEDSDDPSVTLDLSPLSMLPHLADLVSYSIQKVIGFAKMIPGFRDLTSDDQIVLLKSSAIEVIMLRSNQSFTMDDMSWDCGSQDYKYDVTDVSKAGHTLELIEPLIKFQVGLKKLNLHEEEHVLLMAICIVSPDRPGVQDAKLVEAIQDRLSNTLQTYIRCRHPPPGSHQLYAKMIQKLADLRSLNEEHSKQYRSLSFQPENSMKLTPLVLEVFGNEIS
Description: Full-length recombinant rat receptor was expressed in E. coli BL21 (DE3) Codon Plus RIL cells and purified to homogeneity using two different column chromatography systems. The first system was a nickel affinity resin that utilizes the C-terminal histidine tag on this protein. The protein that was eluted from this resin was further purified using ion exchange chromatography (S-Sepharose Fast Flow). Aliquots of the purified protein were quick frozen in liquid nitrogen and stored at −80° C. until use. For use in binding assays, the protein was diluted in TEDK50 (50 mM Tris, 1.5 mM EDTA, pH7.4, 5 mM DTT, 150 mM KCl) with 0.1% Chaps detergent. The receptor protein and ligand concentration was optimized such that no more than 20% of the added radiolabeled ligand was bound to the receptor.
Radiolabeled ligand (^3H-1,25(OH)2D3, ˜159 Ci/mmole) was added in ethanol at a final concentration of 1 nM.
Radiolabeled and unlabeled ligands were added to 100 mcl of the diluted protein at a final ethanol concentration of <10%, mixed and incubated overnight on ice to reach binding equilibrium. The following day, 100 mcl of hydroxylapatite slurry (50%) was added to each tube and mixed at 10-minute intervals for 30 minutes. […] Total binding was determined from the tubes containing only radiolabeled ligand.

HL-60 cells = assay: HL-60 differentiation (nitro blue tetrazolium reduction); type: cell-based, human; conditions: FIG. 4
Description: The study drugs were dissolved in ethanol and the concentrations determined using UV spectrophotometry. Serial dilutions were prepared so that a range of drug concentrations could be tested without changing the final concentration of ethanol (<0.2%) present in the cell cultures.
Human promyelocytic leukemia (HL60) cells were grown in RPMI-1640 medium containing 10% fetal bovine serum. The cells were incubated at 37° C. in the presence of 5% CO2.
HL60 cells were plated at 1.2×10^5 cells/ml. Eighteen hours after plating, cells in duplicate were treated with drug. Four days later, the cells were harvested and a nitro blue tetrazolium reduction assay was performed (Collins et al., 1979; J. Exp. Med. 149:969-974). The percentage of differentiated cells was determined by counting a total of 200 cells and recording the number that contained intracellular black-blue formazan deposits. Verification of differentiation to monocytic cells was determined by measuring phagocytic activity (data not shown).

[2] = test system: 24-hydyroxylase (24Ohase) gene promoter luciferase reporter in ROS 17/2.8 (bone) cells; assay: In vitro transcription assay (24-hydroxylase promoter luciferase reporter); type: cell-based; conditions: Ros17/2.8 (bone) cells
Description: Transcription activity was measured in ROS 17/2.8 (bone) cells that were stably transfected with a 24-hydyroxylase (24Ohase) gene promoter upstream of a luciferase reporter gene (Arbour et al., 1998). Cells were given a range of doses. Sixteen hours after dosing the cells were harvested and luciferase activities were measured using a luminometer. (RLU=relative luciferase units)

[3] = test system: Male, weanling Sprague-Dawley rats; assay: Intestinal calcium transport (everted gut sac method); type: in vivo, rat; conditions: four consecutive ip doses, FIG. 3
Source text: (§1) Male, weanling Sprague-Dawley rats were placed on Diet 11 (Suda et al., Purified Rodent Diet-Diet 11, containing 0.47% and 0.3% phosphorus and fat soluble vitamins A, D, E and K are provided ad libitum)(0.47% Ca) diet+AEK for one week followed by Diet 11 (0.02% Ca)+AEK for 3 weeks. The rats were then switched to a diet containing 0.47% Ca for one week followed by two weeks on a diet containing 0.02% Ca. Dose administration began during the last week on 0.02% calcium diet. Four consecutive ip doses were given approximately 24 hours apart. Twenty-four hours after the last dose, blood was collected from the severed neck and the concentration of serum calcium determined as a measure of bone calcium mobilization. The first 10 cm of the intestine was also collected for intestinal calcium transport analysis using the everted gut sac method. The everted gut sac assay was carried out as previously described by Martin and Deluca, Am. J. Physiol. 216, 1351 (1969); (DeLuca et al., U.S. Pat. No. 4,188,345), which are incorporated by reference as if fully set forth herein.
The negative control material is prepared by volumetrically measuring ethanol (<5%) and propylene glycol, mixing, and then placing in storage at 2 to 8° C.
The solution is mixed and then stored at 2 to 8° C. […]

[4] = test system: Male, weanling Sprague-Dawley rats; assay: Bone calcium mobilization (serum calcium); type: in vivo, rat; conditions: four consecutive ip doses, FIG. 2
Source text: as §1, with “herein. […]” for “herein.”
Twenty-four hours after the final dose, approximately 1 ml of blood is collected from the tail artery of each experimental animal. […] The level of calcium is determined by diluting the serum into 0.1% lanthum chloride and measuring the absorbance on an atomic absorption spectrophotometer (Perkin Elmer Model 3110, Shelton, Conn.).

C=C1[C@H](O)CC(=C/C=C2\CCC[C@]3(C)[C@@H](CCCCC(C)C)CC[C@@H]23)C[C@H]1O [SY-44, 2-methylene-1α-hydroxy-19,21-dinorvitamin D3]
binding to the recombinant vitamin D receptor, times less active when compared to 1α,25-dihydroxyvitamin D3 ([1]; competition with [3H]-1,25-(OH)2-D3, relative to 1α,25-dihydroxyvitamin D3, FIG. 1): 10 times
binding to vitamin D receptors (in words) ([1]; summary statement): high binding to vitamin D receptors
activity in inducing differentiation of HL-60 cells compared with 1α,25-dihydroxyvitamin D3 (HL-60 cells): slightly less active; also recorded: capability to induce differentiation of HL-60 cells
stimulating transcription of a reporter gene, times less active than 1α,25-dihydroxyvitamin D3 ([2]; stably transfected reporter, FIG. 5): 10 times
stimulation of transcription of reporter gene (in words) ([2]; summary statement): capability to stimulate transcription of reporter gene
intestinal calcium transport activity compared with 1α,25-dihydroxyvitamin D3 [3]: higher intestinal calcium transport activity; also recorded: high intestinal calcium transport activity
bone calcium mobilization activity compared with 1α,25-dihydroxyvitamin D3 [4]: less bone calcium mobilization activity; also recorded: low ability to mobilize calcium from bone
